Test results reported in US11524963B2, “Substituted pyrazolo[3,4-d]pyrimidines as RET kinase inhibitors” (Array Biopharma Inc., priority 2018, dated 2022).
pIC50: −log10 of the molar value. Structures can show the parent of a compound that is named as a salt.

How the values were obtained:
Assay type in all cases: biochemical
RET kinase Wild Type = RET kinase Wild Type (Homo sapiens, UniProt P07949); assay: RET Enzyme Assay (HTRF KinEASE-TK), Wild Type
RET kinase G810S = RET kinase G810S (Homo sapiens, UniProt P07949, G810S); assay: RET Enzyme Assay (HTRF KinEASE-TK), G810S
Chain of RET kinase G810S (P07949 29-1114 G810S): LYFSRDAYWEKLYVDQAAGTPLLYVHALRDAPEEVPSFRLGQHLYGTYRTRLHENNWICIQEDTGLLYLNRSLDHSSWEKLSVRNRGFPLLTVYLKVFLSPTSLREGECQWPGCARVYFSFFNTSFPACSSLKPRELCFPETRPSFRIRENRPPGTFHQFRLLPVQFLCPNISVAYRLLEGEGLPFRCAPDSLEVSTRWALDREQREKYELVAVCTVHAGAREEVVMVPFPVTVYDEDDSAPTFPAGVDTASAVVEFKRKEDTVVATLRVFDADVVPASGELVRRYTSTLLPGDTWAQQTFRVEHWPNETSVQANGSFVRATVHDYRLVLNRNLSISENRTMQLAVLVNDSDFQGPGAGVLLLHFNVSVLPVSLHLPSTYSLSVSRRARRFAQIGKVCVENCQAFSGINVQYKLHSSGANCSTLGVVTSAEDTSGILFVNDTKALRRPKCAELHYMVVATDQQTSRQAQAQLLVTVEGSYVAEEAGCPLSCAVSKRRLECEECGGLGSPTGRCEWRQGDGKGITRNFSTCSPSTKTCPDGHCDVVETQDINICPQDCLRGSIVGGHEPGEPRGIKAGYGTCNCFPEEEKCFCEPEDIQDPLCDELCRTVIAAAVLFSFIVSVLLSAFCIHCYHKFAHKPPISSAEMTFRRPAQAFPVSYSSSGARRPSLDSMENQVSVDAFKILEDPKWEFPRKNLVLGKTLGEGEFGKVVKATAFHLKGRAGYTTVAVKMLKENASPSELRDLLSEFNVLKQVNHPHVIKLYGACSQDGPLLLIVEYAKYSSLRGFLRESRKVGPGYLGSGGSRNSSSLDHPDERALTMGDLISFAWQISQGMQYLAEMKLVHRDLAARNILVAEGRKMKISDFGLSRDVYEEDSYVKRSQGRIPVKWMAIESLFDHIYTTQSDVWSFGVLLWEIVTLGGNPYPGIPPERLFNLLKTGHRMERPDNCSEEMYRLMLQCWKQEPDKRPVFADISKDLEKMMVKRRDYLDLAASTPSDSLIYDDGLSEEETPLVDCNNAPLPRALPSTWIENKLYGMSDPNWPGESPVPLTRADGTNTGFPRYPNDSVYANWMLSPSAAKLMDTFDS

RET kinase G810R = RET kinase G810R (Homo sapiens, UniProt P07949, G810R); assay: RET Enzyme Assay (HTRF KinEASE-TK), G810R
Chain of RET kinase G810R (P07949 29-1114 G810R): as the sequence (P07949 29-1114 G810S) above, with S782R counted along it

RET kinase M918T = RET kinase M918T (Homo sapiens, UniProt P07949, M918T); assay: RET Enzyme Assay (HTRF KinEASE-TK), M918T
Chain of RET kinase M918T (P07949 29-1114 M918T): as the sequence (P07949 29-1114 G810S) above, with S782G, M890T counted along it

RET kinase V804M = RET kinase V804M (Homo sapiens, UniProt P07949, V804M); assay: RET Enzyme Assay (HTRF KinEASE-TK), V804M
Chain of RET kinase V804M (P07949 29-1114 V804M): as the sequence (P07949 29-1114 G810S) above, with V776M, S782G counted along it

Chain of RET kinase Wild Type (P07949 29-1114): as the sequence (P07949 29-1114 G810S) above, with S782G counted along it

SMILES | pIC50 (RET kinase Wild Type) | pIC50 (RET kinase G810S) | pIC50 (RET kinase G810R) | pIC50 (RET kinase M918T) | pIC50 (RET kinase V804M)
CC(C)n1nc(-n2cc(C3CC3)cn2)c2c(N)ncnc21 [Example 34, 3-(4-cyclopropyl-1H-pyrazol-1-yl)-1-isopropyl-1H-pyrazolo[3,4-d]pyrimidin-4-amine] | 7.43 |  |  |  | 
CC(C)n1nc(-c2nccn2C)c2c(N)ncnc21 [Example 33, 1-isopropyl-3-(1-methyl-1H-imidazol-2-yl)-1H-pyrazolo[3,4-d]pyrimidin-4-amine] | 7.18 |  |  |  | 
CC(=O)n1nc(-c2nn(C(C)C)c3ncnc(N)c23)cc1C [Example 32, 1-(3-(4-amino-1-isopropyl-1H-pyrazolo[3,4-d]pyrimidin-3-yl)-5-methyl-1H-pyrazol-1-yl)ethan-1-one] | 7.35 |  |  |  | 
CC(C)n1nc(-c2noc(C3CC3)c2C2=CCOCC2)c2c(N)ncnc21 [Example 4, 3-(5-cyclopropyl-4-(3,6-dihydro-2H-pyran-4-yl)isoxazol-3-yl)-1-isopropyl-1H-pyrazolo[3,4-d]pyrimidin-4-amine] | 8.28 | 7.43 | 7.87 | 8.12 | 7.54
CC(C)c1cc(-c2nn(C(C)C)c3ncnc(N)c23)n(C2CCCCO2)n1 (stereo not shown) [Example 20, 1-isopropyl-3-(3-isopropyl-1-(tetrahydro-2H-pyran-2-yl)-1H-pyrazol-5-yl)-1H-pyrazolo[3,4-d]pyrimidin-4-amine] | 7.68 | 6.65 | 7.15 | 7.33 | 
CC(C)n1nc(-c2cc(C(F)(F)F)[nH]n2)c2c(N)ncnc21 [Example 31, 1-isopropyl-3-(5-(trifluoromethyl)-1H-pyrazol-3-yl)-1H-pyrazolo[3,4-d]pyrimidin-4-amine dihydrochloride] | 6.81 |  |  |  | 
CC(C)n1nc(-c2cc(-c3ccccc3)nn2C2CCCCO2)c2c(N)ncnc21 (stereo not shown) [Example 24, 1-isopropyl-3-(3-phenyl-1-(tetrahydro-2H-pyran-2-yl)-1H-pyrazol-5-yl)-1H-pyrazolo[3,4-d]pyrimidin-4-amine] | 8.06 | 7.27 | 7.26 | 8.01 | 
C=Cc1cc(-c2nn(C(C)C)c3ncnc(N)c23)[nH]n1 [Example 30, 1-isopropyl-3-(3-vinyl-1H-pyrazol-5-yl)-1H-pyrazolo[3,4-d]pyrimidin-4-amine hydrochloride] | 7.18 |  |  |  | 
CC(C)n1nc(-c2cc(C3CC3)nn2C2CCCCC2)c2c(N)ncnc21 [Example 26, 3-(1-cyclohexyl-3-cyclopropyl-1H-pyrazol-5-yl)-1-isopropyl-1H-pyrazolo[3,4-d]pyrimidin-4-amine] | 8.10 | 7.06 | 7.50 | 7.85 | 
CC(C)n1nc(C2CC2)cc1-c1nn(C(C)C)c2ncnc(N)c12 [Example 27, 3-(3-cyclopropyl-1-isopropyl-1H-pyrazol-5-yl)-1-isopropyl-1H-pyrazolo[3,4-d]pyrimidin-4-amine] | 7.94 | 6.39 | 7.37 | 7.65 | 
CC(C)n1nc(-c2cnn(C3CC3)c2)c2c(N)ncnc21 [Example 29, 3-(1-cyclopropyl-1H-pyrazol-4-yl)-1-isopropyl-1H-pyrazolo[3,4-d]pyrimidin-4-amine] | 7.21 |  |  |  | 
CC(C)n1nc(-c2cc(C(F)(F)F)nn2C2CCCCO2)c2c(N)ncnc21 (stereo not shown) [Example 25, 1-isopropyl-3-(1-(tetrahydro-2H-pyran-2-yl)-3-(trifluoromethyl)-1H-pyrazol-5-yl)-1H-pyrazolo[3,4-d]pyrimidin-4-amine] | 8.08 | 7.10 | 7.31 | 7.79 | 
Cc1cnn(C2CCCCO2)c1-c1nn(C(C)C)c2ncnc(N)c12 (stereo not shown) [Example 28, 1-isopropyl-3-(4-methyl-1-(tetrahydro-2H-pyran-2-yl)-1H-pyrazol-5-yl)-1H-pyrazolo[3,4-d]pyrimidin-4-amine] | 6.42 |  |  |  | 6.56
CC(C)n1nc(-c2c[nH]nn2)c2c(N)ncnc21 [Example 35, 1-isopropyl-3-(1H-1,2,3-triazol-4-yl)-1H-pyrazolo[3,4-d]pyrimidin-4-amine] | 8.14 |  |  |  | 
